Assay results published in patent US7098340B2, “Benzyl sulfonamide derivatives” (Warner Lambert Company LLC, priority 2003, dated 2006).

Target: T1, androgen receptor (Homo sapiens, UniProt P10275)
T1 sequence (P10275 1-920 Q868H): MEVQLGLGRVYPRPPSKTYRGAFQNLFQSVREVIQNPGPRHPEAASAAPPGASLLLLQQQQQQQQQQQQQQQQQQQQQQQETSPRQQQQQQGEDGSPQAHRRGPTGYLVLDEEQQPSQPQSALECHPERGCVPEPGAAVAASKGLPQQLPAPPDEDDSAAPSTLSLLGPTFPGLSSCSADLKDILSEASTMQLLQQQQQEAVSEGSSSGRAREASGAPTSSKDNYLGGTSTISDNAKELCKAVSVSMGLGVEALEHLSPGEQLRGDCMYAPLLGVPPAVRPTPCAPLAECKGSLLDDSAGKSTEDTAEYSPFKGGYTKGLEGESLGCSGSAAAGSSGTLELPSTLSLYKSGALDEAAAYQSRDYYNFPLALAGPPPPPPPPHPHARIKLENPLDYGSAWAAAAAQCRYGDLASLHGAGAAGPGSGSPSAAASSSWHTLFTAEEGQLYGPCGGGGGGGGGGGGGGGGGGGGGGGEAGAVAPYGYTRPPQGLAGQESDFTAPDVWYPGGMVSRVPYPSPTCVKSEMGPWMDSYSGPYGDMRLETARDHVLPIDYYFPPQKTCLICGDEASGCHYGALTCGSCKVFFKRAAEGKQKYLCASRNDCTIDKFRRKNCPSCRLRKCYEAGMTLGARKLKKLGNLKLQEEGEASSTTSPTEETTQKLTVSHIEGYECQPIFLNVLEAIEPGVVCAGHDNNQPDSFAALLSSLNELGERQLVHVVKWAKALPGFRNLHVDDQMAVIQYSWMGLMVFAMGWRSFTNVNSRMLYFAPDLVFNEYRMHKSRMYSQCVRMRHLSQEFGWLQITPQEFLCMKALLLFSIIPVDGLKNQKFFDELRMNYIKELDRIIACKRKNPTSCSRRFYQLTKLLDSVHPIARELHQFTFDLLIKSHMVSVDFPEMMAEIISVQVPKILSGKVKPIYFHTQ
Assay: AR Antagonist Cell Assay (MMTV-luciferase reporter, DHT-stimulated)
Format: cell-based
Conditions: MDA-MB453-MMTV clone 54-19 cells; antagonism of 100 pM DHT, 17 hr, luciferase readout
In short: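 MDA-MB453 cells stably carrying MMTV-ARE-firefly luciferase, in 1% charcoal-treated serum, preincubated 30 min with compound (10 uM or 1 uM) then stimulated with 100 pM DHT for 17 h at 37° C. Luminescence read; result as % inhibition of DHT fold induction.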

`CCOC(=O)C(NS(=O)(=O)c1ccc(Cc2ccc3[nH]c(=O)cc(C(F)(F)F)c3c2)cc1)c1ccccc1` (stereo not drawn) [Example 89, [4-(2-Oxo-4-trifluoromethyl-1,2-dihydroquinolin-6-ylmethyl)-benzenesulfonylamino]-phenylacetic acid ethyl ester] and `Cc1cccc(CNS(=O)(=O)c2ccc(Cc3ccc4[nH]c(=O)cc(C(F)(F)F)c4c3)cc2)c1` [Example 58, N-(3-Methylbenzyl)-4-(2-oxo-4-trifluoromethyl-1,2-dihydroquinolin-6-ylmethyl)-benzenesulfonamide] cannot be ordered by IC50: greater than 10 µM for the first, greater than 10 µM for the second.

`C#Cc1ccc(NS(=O)(=O)c2ccc(Cc3ccc4[nH]c(=O)cc(C(F)(F)F)c4c3)cc2)cc1` [Example 15, N-(4-Ethynylphenyl)-4-(2-oxo-4-trifluoromethyl-1,2-dihydroquinolin-ylmethyl)benzenesulfonamide] and `N#Cc1cccc(NS(=O)(=O)c2ccc(Cc3ccc4[nH]c(=O)cc(C(F)(F)F)c4c3)cc2)c1` [Example 16, N-(3-Cyanophenyl)-4-(2-oxo-4-trifluoromethyl-1,2-dihydroquinolin-6-ylmethyl)-benzenesulfonamide] are within 1.5-fold of each other in IC50: 2.8 µM for the first, 2.02 µM for the second.

`O=c1cc(C(F)(F)F)c2cc(Cc3ccc(S(=O)(=O)Nc4ccccc4N4CCCCC4)cc3)ccc2o1` [Example 146, 4-(2-Oxo-4-trifluoromethyl-2H-chromen-6-ylmethyl)-N-(2-piperidin-1-ylphenyl)-benzenesulfonamide] and `COc1ccccc1NS(=O)(=O)c1ccc(Cc2ccc3oc(=O)cc(C(F)(F)F)c3c2)cc1` [Example 123, N-(2-Methoxyphenyl)-4-(2-oxo-4-trifluoromethyl-2H-chromen-6-ylmethyl)-benzenesulfonamide] are within 1.5-fold of each other in IC50: 4.82 µM for the first, 4.08 µM for the second.

Going from `O=c1cc(C(F)(F)F)c2cc(Cc3ccc(S(=O)(=O)NCc4c(F)ccc(F)c4Cl)cc3)ccc2o1` [Example 202, N-(2-Chloro-3,6-difluorobenzyl)-4-(2-oxo-4-trifluoromethyl-2H-chromen-6-ylmethyl)benzenesulfonamide] to `O=c1cc(C(F)(F)F)c2cc(Cc3ccc(S(=O)(=O)NCc4c(F)cccc4F)cc3)ccc2o1` [Example 188, N-(2,6-Difluorobenzyl)-4-(2-oxo-4-trifluoromethyl-2H-chromen-6-ylmethyl)benzenesulfonamide], the IC50 falls from 4.42 µM to 1.91 µM (2.3-fold). The second is the more potent here.

Going from `CC(C)(NS(=O)(=O)c1ccc(Cc2ccc3oc(=O)cc(C(F)(F)F)c3c2)cc1)c1ccccc1` [Example 179, N-(1-Methyl-1-phenylethyl)-4-(2-oxo-4-trifluoromethyl-2H-chromen-6-ylmethyl)benzenesulfonamide] to `CCN(Cc1ccccc1)S(=O)(=O)c1ccc(Cc2ccc3oc(=O)cc(C(F)(F)F)c3c2)cc1` [Example 110, N-Benzyl-N-ethyl-4-(2-oxo-4-trifluoromethyl-2H-chromen-6-ylmethyl)benzenesulfonamide], the IC50 falls from greater than 10 µM to 5.94 µM.

`O=c1cc(C(F)(F)F)c2cc(Cc3ccc(S(=O)(=O)Nc4cccc(OC(F)(F)F)c4)cc3)ccc2o1` [Example 147, 4-(2-Oxo-4-trifluoromethyl-2H-chromen-6-ylmethyl)-N-(3-trifluoromethoxyphenyl)-benzenesulfonamide] and `CC(C)Oc1cccc(NS(=O)(=O)c2ccc(Cc3ccc4oc(=O)cc(C(F)(F)F)c4c3)cc2)c1` [Example 142, N-(3-Isopropoxyphenyl)-4-(2-oxo-4-trifluoromethyl-2H-chromen-6-ylmethyl)-benzenesulfonamide] are within 1.5-fold of each other in IC50: 8.58 µM for the first, roughly 10 µM for the second.

First: O=c1cc(C(F)(F)F)c2cc(Cc3ccc(S(=O)(=O)Nc4cccc(-c5cnco5)c4)cc3)ccc2o1 [Example 144, N-(3-Oxazol-5-ylphenyl)-4-(2-oxo-4-trifluoromethyl-2H-chromen-6-ylmethyl)-benzenesulfonamide]
Second: O=c1cc(C(F)(F)F)c2cc(Cc3ccc(S(=O)(=O)Nc4cccc(-c5cnco5)c4)cc3)ccc2[nH]1 [Example 38, N-(3-Oxazol-5-ylphenyl)-4-(2-oxo-4-trifluoromethyl-1,2-dihydroquinolin-6-ylmethyl)benzenesulfonamide]
The IC50 of the first is lower: 2.17 µM for the first, greater than 10 µM for the second.

`CCCCCN(CCO)S(=O)(=O)c1ccc(Cc2ccc3oc(=O)cc(C(F)(F)F)c3c2)cc1` [Example 105] and `CN(CCc1ccccn1)S(=O)(=O)c1ccc(Cc2ccc3oc(=O)cc(C(F)(F)F)c3c2)cc1` [Example 111, N-Methyl-4-(2-oxo-4-trifluoromethyl-2H-chromen-6-ylmethyl)-N-(2-pyridin-2-ylethyl)benzenesulfonamide] are within 1.5-fold of each other in IC50: 3.52 µM for the first, 4.78 µM for the second.

Going from `CC(C)c1ccc(NS(=O)(=O)c2ccc(Cc3ccc4oc(=O)cc(C(F)(F)F)c4c3)cc2)cc1` [Example 130, N-(4-Isopropylphenyl)-4-(2-oxo-4-trifluoromethyl-2H-chromen-6-ylmethyl)-benzenesulfonamide] to `O=c1cc(C(F)(F)F)c2cc(Cc3ccc(S(=O)(=O)Nc4ccc(Cl)cc4)cc3)ccc2o1` [Example 135, N-(4-Chlorophenyl)-4-(2-oxo-4-trifluoromethyl-2H-chromen-6-ylmethyl)benzenesulfonamide], the IC50 falls from 3.91 µM to 2.01 µM (1.9-fold). The second is the more potent here.

Going from `O=c1cc(C(F)(F)F)c2cc(Cc3ccc(S(=O)(=O)NCc4cccc(Cl)c4)cc3)ccc2o1` [Example 186, N-(3-Chlorobenzyl)-4-(2-oxo-4-trifluoromethyl-2H-chromen-6-ylmethyl)benzenesulfonamide] to `CSc1ccccc1CNS(=O)(=O)c1ccc(Cc2ccc3oc(=O)cc(C(F)(F)F)c3c2)cc1` [Example 194, N-(2-Methylsulfanylbenzyl)-4-(2-oxo-4-trifluoromethyl-2H-chromen-6-ylmethyl)benzenesulfonamide], the IC50 falls from greater than 10 µM to 8 µM.

Compared with `O=c1cc(C(F)(F)F)c2cc(Cc3ccc(S(=O)(=O)Nc4ccc(-n5ccc(C(F)(F)F)n5)cc4)cc3)ccc2[nH]1` [Example 49, 4-(2-Oxo-4-trifluoromethyl-1,2-dihydroquinolin-6-ylmethyl)-N-[4-(3-trifluoromethylpyrazol-1-yl)phenyl]-benzenesulfonamide], `O=c1cc(C(F)(F)F)c2cc(Cc3ccc(S(=O)(=O)Nc4ccc(-n5ccc(C(F)(F)F)n5)cc4)cc3)ccc2o1` [Example 155, 4-(2-Oxo-4-trifluoromethyl-2H-chromen-6-ylmethyl)-N-[4-(3-trifluoromethylpyrazol-1-yl)phenyl]benzenesulfonamide] is lower in IC50: greater than 10 µM for the first, 6.5 µM for the second.

Compared with `O=c1cc(C(F)(F)F)c2cc(Cc3ccc(S(=O)(=O)Nc4ccc(CO)cc4)cc3)ccc2o1` [Example 124, N-(4-Hydroxymethylphenyl)-4-(2-oxo-4-trifluoromethyl-2H-chromen-6-ylmethyl)-benzenesulfonamide], `CSc1cccc(NS(=O)(=O)c2ccc(Cc3ccc4oc(=O)cc(C(F)(F)F)c4c3)cc2)c1` [Example 134, N-(3-Methylsulfanylphenyl)-4-(2-oxo-4-trifluoromethyl-2H-chromen-6-ylmethyl)-benzenesulfonamide] is 1.9-fold lower in IC50: 2.31 µM for the first, 1.24 µM for the second.

Going from `O=c1cc(C(F)(F)F)c2cc(Cc3ccc(S(=O)(=O)NCc4cc(C(F)(F)F)ccc4F)cc3)ccc2o1` [Example 204, N-(2-Fluoro-5-trifluoromethylbenzyl)-4-(2-oxo-4-trifluoromethyl-2H-chromen-6-ylmethyl)benzene-sulfonamide] to `COc1ccccc1CCNS(=O)(=O)c1ccc(Cc2ccc3oc(=O)cc(C(F)(F)F)c3c2)cc1` [Example 190, N-[2-(2-Methoxyphenyl)ethyl]-4-(2-oxo-4-trifluoromethyl-2H-chromen-6-ylmethyl)benzenesulfonamide], the IC50 falls from greater than 10 µM to 5.41 µM.

Going from `O=c1cc(C(F)(F)F)c2cc(Cc3ccc(S(=O)(=O)NC4CCc5ccccc54)cc3)ccc2o1` (stereo not drawn) [Example 178, N-Indan-1-yl-4-(2-oxo-4-trifluoromethyl-2H-chromen-6-ylmethyl)benzenesulfonamide] to `O=c1cc(C(F)(F)F)c2cc(Cc3ccc(S(=O)(=O)Nc4ccc5c(c4)CCC5)cc3)ccc2o1` [Example 127, N-Indan-5-yl-4-(2-oxo-4-trifluoromethyl-2H-chromen-6-ylmethyl)benzenesulfonamide], the IC50 falls from 7.74 µM to 2.77 µM (2.8-fold).

First: CCc1cccc(NS(=O)(=O)c2ccc(Cc3ccc4[nH]c(=O)cc(C(F)(F)F)c4c3)cc2)c1 [Example 17, N-(3-Ethylphenyl)-4-(2-oxo-4-trifluoromethyl-1,2-dihydroquinolin-6-ylmethyl)benzenesulfonamide]
Second: O=c1cc(C(F)(F)F)c2cc(Cc3ccc(S(=O)(=O)NC4CCCC4)cc3)ccc2o1 [Example 158, N-Cyclopentyl-4-(2-oxo-4-trifluoromethyl-2H-chromen-6-ylmethyl)benzenesulfonamide]
The IC50 of the first is higher: greater than 10 µM for the first, 6.5 µM for the second. The second is the more potent here.
